US10996215B2, “Methods for determining drug efficacy for the treatment of diffuse large B-cell lymphoma, multiple myeloma, and myeloid cancers” (CELGENE CORPORATION, priority 2013, dated 2021)

Legend:
Aiolos, Ikaros = assay: FFPE IHC for Aiolos and Ikaros in WSU-DLCL2 xenograft tumors; type: in vivo; details: WSU-DLCL2 xenograft SCID mice, 30 mg/kg qd
Protocol: WSU-DLCL2 xenograft SCID mice can be prepared using methods known in the art. In brief, female CB17 severe combined immunodeficiency (SCID) mice (6-12 weeks old) are obtained from the Charles River Laboratory (Wilmington, Mass.) and maintained in microisolator cages under sterile conditions. A total of 10×10^6 WSU-DLCL2 DLBCL cells in 100% Matrigel® (Becton Dickinson, San Jose, Calif.) are injected subcutaneously into the right flank of mice. Mice are monitored 2 or 3 times a week for the appearance of tumors.
WSU-DLCL2 xenograft SCID mice (a human tumor xenograft model) were treated with either vehicle or 30 mg/kg Compound A q.d. Tumor samples were harvested at 1 hour, 6 hours, or 24 hours after the last dose.
Immunohistochemistry was performed using standard methods. For example, immunohistochemistry is performed on the Bond-Max™ automated slide stainer (Leica Microsystems) using the associated Bond™ Polymer Refine Detection Kit. Four micron thick FFPE sections are deparaffinized on the instrument. Antigen retrieval is performed with Epitope Retrieval™ 2 (pH 9.0) for 20 minutes at 100° C. The slides are blocked for endogenous peroxidase activity with Peroxide Block for 5 minutes at room temperature. […]

[1] = tested on: TMD8 (ABC) or Karpas 422 (GCB) cells; assay: competition with lenalidomide for CRBN, 3H-thymidine proliferation; type: cell-based; details: TMD8 or Karpas 422; co-treatment with 10 μM lenalidomide; competition of binding to the CRBN complex
ABC-DLBCL cell line = assay: Tandem Mass Tag proteomics, lenalidomide vs Compound A; type: cell-based; details: 24 h
Excerpt: Cells were harvested and proteins were fractionated using a basic pH reverse gradient method. Fractionated samples were labeled using a Tandem Mass Tag method.

ZFP91, Aiolos = assay: Western blot of ZFP91 and Aiolos in OCI-LY10 cells; type: cell-based; details: OCI-LY10, 6 hrs
Excerpt: (§1) Cells were harvested with RIPA buffer, and proteins from cell lysates were separated by 10% sodium dodecyl sulfate polyacrylamide (SDS-PAGE) gel electrophoresis (Bio-Rad), and transferred to PVDF membranes (Invitrogen). Immunoblots were probed with antibodies recognizing Aiolos (9-9-7; Celgene), CK1α(Abcam), GSPT1 (Sigma), ZFP91 (LSBio) and β-actin (Li-Cor). Signals were detected with a Li-Cor Odyssey imager.
Immunoblots were probed with antibodies recognizing Aiolos (9-9-7; Celgene), GSPT1 (Sigma), ZFP91 (LSBio) and β-actin (Li-Cor). Signals were detected with a Li-Cor Odyssey imager.
as §1, with “OCI-LY10 cells treated with DMSO or various drugs for 6 hrs. Cells” for “Cells”, “buffer” for “buffer,”, “recognizing:” for “recognizing”
OCI-LY10 cells were then treated with DMSO or various drugs for 6 hrs. […] Cells were harvested with RIPA buffer and Proteins from cell lysates were separated by 10% sodium dodecyl sulfate polyacrylamide (SDS-PAGE) gel electrophoresis (Bio-Rad), and transferred to PVDF membranes (Invitrogen). Immunoblots were probed with antibodies recognizing: Aiolos (9-9-7; Celgene), ZFP91 (LSBio), ZNF198 (LSBio) and β-actin (Li-Cor). Signals were detected with a Li-Cor™ Odyssey imager.
OCI-LY10 cells stably transduced with shCRBN 11 were induced for 48 hrs with either 0 or 10 ng/ml of doxycycline. […] Where MLN4924 treatments were present, MLN4924 was pre-incubated for 1 hr prior to drug treatment. Cells were harvested with RIPA buffer and Proteins from cell lysates were separated by 10% sodium dodecyl sulfate polyacrylamide (SDS-PAGE) gel electrophoresis (Bio-Rad), and transferred to PVDF membranes (Invitrogen). Immunoblots were probed with antibodies recognizing: CRBN-65, Aiolos (9-9-7; Celgene), Ikaros (Millipore), ZFP91 (LSBio) and β-actin (Li-Cor). Signals were detected with a Li-Cor Odyssey imager.

HNT-34 = assay: 4 d BrdU cell assay / tritiated thymidine, sensitivity; type: cell-based; details: FIG. 22B
Protocol: (§2) Sensitivity to lenalidomide treatment in a panel of myeloid cancer cell lines was evaluated by tritiated thymidine and/or BrdU assays.

MDS-L = assay: as above; type: cell-based; details: FIG. 22B
Protocol: as §2

**Q.** Which “time to Aiolos and Ikaros degradation in tumor” value (Aiolos, Ikaros) does the source give for `Cc1nc2cccc(N)c2c(=O)n1C1CCC(=O)NC1=O` (stereo not drawn) [Compound A, 3-(5-amino-2-methyl-4-oxo-4H-quinazolin-3-yl)-piperidine-2,6-dione] here?
**A.** ≤ 6 h

**Q.** And the “anti-proliferative effects on co-treatment with lenalidomide” value [1]?
**A.** blocks anti-proliferative effects of Compound A

**Q.** What about the “overall effect on protein abundance compared to lenalidomide” value (ABC-DLBCL cell line; 10 uM each, log2 ratios vs DMSO) of the same molecule?
**A.** generally stronger effect

**Q.** And the “gradient of regression line, log2 ratios of lenalidomide and Compound A plotted against each other” value (ABC-DLBCL cell line; 10 uM each, r2=0.752, intercept 0.03)?
**A.** 1.45

**Q.** What about the “effect on CSNK1A1 protein” value (ABC-DLBCL cell line; ABC-DLBCL cell line, 10 uM, vs DMSO) of the same molecule?
**A.** does not appear to affect

**Q.** And the “levels of ZFP91 and Aiolos” value (ZFP91, Aiolos; 100 mM thalidomide, 10 mM lenalidomide, 1 mM pomalidomide, 1 μM or 10 μM Compound A, 100 nM Compound B, FIG. 17A)?
**A.** reduced

**Q.** What about the “levels of ZFP91 and Aiolos” value (ZFP91, Aiolos; 1 or 10 μM lenalidomide, 0.1, 1 or 10 μM Compound A, FIG. 17B) of the same molecule?
**A.** reduced

**Q.** What about the “sensitivity of HNT-34 cells” value (HNT-34) of the same molecule?
**A.** only MDS-L cells were sensitive to Compound A

**Q.** What about the “sensitivity of MDS-L cells” value (MDS-L) of the same molecule?
**A.** sensitive
